By IC50 is commonly meant the concentration that inhibits the measured activity by half. Lower therefore signals higher potency.

In assay [1] the target is T1, mutEGFR (D770_N771insSVD) (Homo sapiens, UniProt P00533, DUP768-770).
T1 construct: GST-EGFR #3 (SVD between D770 and N771); made in house; host or cells: Sf9 insect cells (baculovirus)
The assay can be described thus: Exon20-Mutant-EGFR (D770_N771insSVD) kinase assay (TR-FRET). Format: biochemical.

Assay [2] addresses T2, mutEGFR (D770_N771insNPG, T790) (Homo sapiens, UniProt P00533, INS770NPG/T790M).
T2 construct: exact insNPG construct not described; in-house EGFR proteins were N-terminal GST fusions from baculovirus/insect cells (borders R669-A1210 given only for WT, insSVD, insASV)
The assay is described as follows: mutEGFR (D770_N771insNPG, T790) kinase assay. In kind it is biochemical. The text has this: The different EGFR proteins used in the biochemical kinase activity inhibition assays were generated inhouse by expression in insect cells using Baculo Virus system and subsequent purification as described in the following paragraphs.
The cDNAs encoding the various protein sequences from human EGFR human (P00533) were optimized for expression in eukaryotic cells and synthesized by the GeneArt Technology at Life Technologies.

Assay [3] relates to BA/F3 (insSVD) cells. The assay can be described thus: Ba/F3-EGFR-insSVD cell survival assay (Cell Titer-Glo). Format: cell-based. In short, it runs like this:
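CellTiter-Glo luminescence read after 48 h compound exposure at 37° C. Cells: IL-3-independent Ba/F3 lines transduced with EGFR-insSVD or EGFR-insSVD T790M, maintained on 10 ng/ml EGF and seeded at 4000 per well.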

The mark [4] stands for this setting: mutEGFR (D770_N771insSVD) kinase assay IC50, Table 2a, D770_N771insSVD, 2 mM ATP.
[5] abbreviates: Mus musculus, BaF3, 48 h, Table 3a, cell survival, Cell Titer-Glo, with 10 ng/ml EGF, without IL-3.
Setting [6] is: mutEGFR (D770_N771insSVD) kinase assay IC50, Table 2b (from US Priority Patent Application), mutEGFR D770_N771insSVD.
Where [7] appears, read: Table 2b (from US Priority Patent Application), mutEGFR D770_N771insNPG.
The mark [8] stands for this setting: Mus musculus, BaF3, 48 h, Table 3b, Ba/F3 EGFR-insSVD.

T2 sequence (P00533 with tags, fused parts or gaps INS770NPG/T790M limits assumed): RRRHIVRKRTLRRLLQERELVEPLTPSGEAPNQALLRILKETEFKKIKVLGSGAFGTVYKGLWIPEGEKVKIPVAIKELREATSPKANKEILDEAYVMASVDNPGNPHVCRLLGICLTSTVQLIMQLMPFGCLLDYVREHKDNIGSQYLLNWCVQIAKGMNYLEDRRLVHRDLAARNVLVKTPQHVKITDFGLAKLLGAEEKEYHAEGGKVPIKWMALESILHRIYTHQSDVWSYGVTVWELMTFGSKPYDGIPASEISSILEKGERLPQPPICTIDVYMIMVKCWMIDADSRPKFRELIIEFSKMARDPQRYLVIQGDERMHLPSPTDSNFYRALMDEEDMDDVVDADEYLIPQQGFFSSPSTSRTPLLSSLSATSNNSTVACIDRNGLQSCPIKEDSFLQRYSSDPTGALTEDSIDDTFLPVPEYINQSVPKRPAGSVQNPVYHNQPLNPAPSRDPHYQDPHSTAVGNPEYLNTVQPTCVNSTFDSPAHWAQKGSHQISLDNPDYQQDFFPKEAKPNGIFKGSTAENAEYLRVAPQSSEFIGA
T1 sequence (P00533 with tags, fused parts or gaps DUP768-770): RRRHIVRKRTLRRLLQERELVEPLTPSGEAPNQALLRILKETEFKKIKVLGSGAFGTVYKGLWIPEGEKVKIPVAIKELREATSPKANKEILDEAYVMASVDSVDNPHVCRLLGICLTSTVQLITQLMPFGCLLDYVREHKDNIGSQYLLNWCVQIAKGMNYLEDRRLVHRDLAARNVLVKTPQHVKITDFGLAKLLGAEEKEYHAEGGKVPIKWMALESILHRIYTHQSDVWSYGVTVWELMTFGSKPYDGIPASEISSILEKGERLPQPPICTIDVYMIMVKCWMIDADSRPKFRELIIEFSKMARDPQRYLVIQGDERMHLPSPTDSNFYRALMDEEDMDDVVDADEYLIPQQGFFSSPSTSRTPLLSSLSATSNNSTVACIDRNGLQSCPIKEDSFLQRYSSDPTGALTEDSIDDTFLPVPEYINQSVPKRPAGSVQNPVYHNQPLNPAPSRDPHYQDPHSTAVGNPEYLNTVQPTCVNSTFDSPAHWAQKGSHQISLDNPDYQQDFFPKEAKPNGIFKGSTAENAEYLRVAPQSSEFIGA

Consider `CC(C)(C)OC(=O)NC1(C#CC(=O)N2CCn3nc(-c4ccc(F)cc4)c(-c4ccncc4)c3C2)CC1` [Example 86, tert-butyl (1-{3-[2-(4-fluorophenyl)-3-(pyridin-4-yl)-6,7-dihydropyrazolo[1,5-a]pyrazin-5(4H)-yl]-3-oxoprop-1-yn-1-yl}cyclopropyl) carbamate], for which the IC50 in assay [1] (setting [4]) came to 122 nM; in assay [2] (Table 2a, D770_N771insNPG) it was 237 nM; in assay [3] (setting [5]), 971 nM.

`COc1ccc(-c2nn3c(c2-c2ccnc4[nH]cc(C)c24)CN(C(=O)/C=C/CN(C)C)CC3)cc1F` [Example 59, (2E)-4-(dimethylamino)-1-[2-(3-fluoro-4-methoxyphenyl)-3-(3-methyl-1H-pyrrolo[2,3-b]pyridin-4-yl)-6,7-dihydropyrazolo[1,5-a]pyrazin-5(4H)-yl]but-2-en-1-one]: the IC50 in assay [1] (setting [4]) was 813 nM; in assay [2] (Table 2a, D770_N771insNPG), 956 nM; in assay [3] (setting [5]), 488 nM.

With `C=CC(=O)N1CCn2nc(-c3ccc(Cl)cc3F)c(-c3ccnc4[nH]cc(C)c34)c2C1` [Example 49, 1-[2-(4-chloro-2-fluorophenyl)-3-(3-methyl-1H-pyrrolo[2,3-b]pyridin-4-yl)-6,7-dihydropyrazolo[1,5-a]pyrazin-5(4H)-yl]prop-2-en-1-one], the IC50 amounted to 112 nM in assay [1] (setting [4]); 121 nM in assay [2] (Table 2a, D770_N771insNPG); 71.7 nM in assay [3] (setting [5]).

`Cc1c[nH]c2nccc(-c3c(-c4cccc(Cl)c4)nn4c3CN(C(=O)/C=C/CN(C)C)CC4)c12` [Example 184, (2E)-1-[2-(3-chlorophenyl)-3-(3-methyl-1H-pyrrolo[2,3-b]pyridin-4-yl)-6,7-dihydropyrazolo[1,5-a]pyrazin-5(4H)-yl]-4-(dimethylamino)but-2-en-1-one]: the IC50 came to 155 nM in assay [1] (setting [4]); 52.8 nM in assay [2] (Table 2a, D770_N771insNPG); 56.6 nM in assay [3] (setting [5]).

Consider `C=CC(=O)N1Cc2c(-c3ccncc3)c(-c3ccc(Cl)cc3)nn2C[C@H]1C` [Example 123, 1-[(6R)-2-(4-chlorophenyl)-6-methyl-3-(pyridin-4-yl)-6,7-dihydropyrazolo[1,5-a]pyrazin-5(4H)-yl]prop-2-en-1-one], for which the half-inhibitory concentration (IC50) was 1.19 nM in assay [1] (setting [4]); 1.95 nM in assay [2] (Table 2a, D770_N771insNPG); 23.7 nM in assay [3] (setting [5]).

For `O=C(C#CCN1CCOCC1)N1CCn2nc(-c3ccc(F)cc3)c(-c3ccncc3)c2C1` [Example 68, 1-[2-(4-fluorophenyl)-3-(pyridin-4-yl)-6,7-dihydropyrazolo[1,5-a]pyrazin-5(4H)-yl]-4-(morpholin-4-yl) but-2-yn-1-one], the IC50 in assay [1] (setting [4]) amounted to 5.33 nM; in assay [2] (Table 2a, D770_N771insNPG), 11.9 nM; in assay [3] (setting [5]) it was 60.2 nM.

In the case of `CN(C)C/C=C/C(=O)N1CCn2nc(-c3ccc(Cl)cc3CO)c(-c3ccncc3)c2C1` [Example 35, (2E)-1-{2-[4-chloro-2-(hydroxymethyl)phenyl]-3-(pyridin-4-yl)-6,7-dihydropyrazolo[1,5-a]pyrazin-5(4H)-yl}-4-(dimethylamino)but-2-en-1-one], the half-maximal inhibitory concentration (IC50) amounted to 1.36 nM in assay [1] (setting [4]); 2.94 nM in assay [2] (Table 2a, D770_N771insNPG); 802 nM in assay [3] (setting [5]).

With `Cc1c[nH]c2nccc(-c3c(-c4ccc(F)cc4)nn4c3C(C)N(C(=O)/C=C/CN(C)C)CC4)c12` (single isomer, unassigned; isomer 2) [Example 256, (E)-4-(dimethylamino)-1-(2-(4-fluorophenyl)-4-methyl-3-(3-methyl-1H-pyrrolo[2,3-b]pyridin-4-yl)-6,7-dihydropyrazolo[1,5-a]pyrazin-5(4H)-yl) but-2-en-1-one (isomer 2)], the concentration for half-maximal inhibition (IC50) in assay [1] (setting [4]) is 7490 nM; in assay [2] (Table 2a, D770_N771insNPG), above 1630 nM; in assay [3] (setting [5]), 158 nM.

For the compound `CN(C)C/C=C/C(=O)N1Cc2c(-c3ccncc3)c(-c3ccc(F)cc3)nn2C(CC(N)=O)C1` (racemic) [Example 220, 2-[(7RS)-5-[(2E)-4-(dimethylamino)but-2-enoyl]-2-(4-fluorophenyl)-3-(pyridin-4-yl)-4,5,6,7-tetrahydropyrazolo[1,5-a]pyrazin-7-yl]acetamide], the 50% inhibitory concentration (IC50) in assay [1] (setting [4]) amounted to 4.15 nM; in assay [2] (Table 2a, D770_N771insNPG), 9.66 nM; in assay [3] (setting [5]), 5880 nM.

As to `O=C(C#CCN1CCOCC1)N1CCn2nc(-c3ccc(Cl)cc3F)c(-c3ccncc3)c2C1` [Example 85, 1-[2-(4-chloro-2-fluorophenyl)-3-(pyridin-4-yl)-6,7-dihydropyrazolo[1,5-a]pyrazin-5(4H)-yl]-4-(morpholin-4-yl) but-2-yn-1-one], the IC50 in assay [1] (setting [4]) is 0.731 nM; in assay [2] (Table 2a, D770_N771insNPG), 2.43 nM; in assay [3] (setting [5]), 34.6 nM.

With `C=CC(=O)N1Cc2c(-c3ccncc3)c(-c3ccc(F)cc3)nn2C(C(=O)NC)C1` (single isomer, unassigned; isomer 1) [Example 205, 5-acryloyl-2-(4-fluorophenyl)-N-methyl-3-(pyridin-4-yl)-4,5,6,7-tetrahydropyrazolo[1,5-a]pyrazine-7-carboxamide (isomer 1)], the IC50 in assay [1] (setting [4]) worked out at 137 nM; in assay [2] (Table 2a, D770_N771insNPG) it was 144 nM; in assay [3] (setting [5]), 824 nM.

`C=CC(=O)N1CCn2nc(-c3ccc(C#N)cc3)c(-c3ccnc4[nH]cc(C)c34)c2C1` [Example 182, 4-[3-(3-methyl-1H-pyrrolo[2,3-b]pyridin-4-yl)-5-(prop-2-enoyl)-4,5,6,7-tetrahydropyrazolo[1,5-a]pyrazin-2-yl]benzonitrile]: the 50% inhibitory concentration (IC50) in assay [1] (setting [4]) came to 861 nM; in assay [2] (Table 2a, D770_N771insNPG), 1080 nM; in assay [3] (setting [5]) it was 531 nM.

In the case of `Cc1cc(-c2nn3c(c2-c2ccncc2)CN(C(=O)/C=C/CN(C)C)C(C)(C)C3)ccc1Cl` [Example 218, (2E)-1-[2-(4-chloro-3-methylphenyl)-6,6-dimethyl-3-(pyridin-4-yl)-6,7-dihydropyrazolo[1,5-a]pyrazin-5(4H)-yl]-4-(dimethylamino)but-2-en-1-one], the IC50 was 6.99 nM in assay [1] (setting [4]); 16.4 nM in assay [2] (Table 2a, D770_N771insNPG); 367 nM in assay [3] (setting [5]).

Turning to `C=CC(=O)N1CCn2nc(-c3ccc(Cl)cc3F)c(-c3ccnc4[nH]ccc34)c2C1` [Example 104, 1-[2-(4-chloro-2-fluorophenyl)-3-(1H-pyrrolo[2,3-b]pyridin-4-yl)-6,7-dihydropyrazolo[1,5-a]pyrazin-5(4H)-yl]prop-2-en-1-one], the IC50 was 1.66 nM in assay [1] (setting [4]); 9.09 nM in assay [2] (Table 2a, D770_N771insNPG); 32 nM in assay [3] (setting [5]).

In the case of `CN(C)C/C=C/C(=O)N1CCn2nc(-c3ccccc3Cl)c(-c3ccncc3)c2C1` [Example 154, (2E)-1-[2-(2-chlorophenyl)-3-(pyridin-4-yl)-6,7-dihydropyrazolo[1,5-a]pyrazin-5(4H)-yl]-4-(dimethylamino)but-2-en-1-one], the concentration for half-maximal inhibition (IC50) in assay [1] (setting [4]) was 3.48 nM; in assay [2] (Table 2a, D770_N771insNPG) it was 27.5 nM; in assay [3] (setting [5]), 2850 nM.

As for `O=C(C#CC1CCCN1)N1CCn2nc(-c3ccc(F)cc3)c(-c3ccncc3)c2C1` (racemic) [Example 88, 1-[2-(4-fluorophenyl)-3-(pyridin-4-yl)-6,7-dihydropyrazolo[1,5-a]pyrazin-5(4H)-yl]-3-[(2RS)-pyrrolidin-2-yl]prop-2-yn-1-one], the 50% inhibitory concentration (IC50) in assay [1] (setting [4]) came out at 9.27 nM; in assay [2] (Table 2a, D770_N771insNPG), 15.8 nM; in assay [3] (setting [5]), 3790 nM.

Consider `C=CC(=O)N1Cc2c(-c3ccncc3)c(-c3ccc(OC)cc3)nn2C(C)C1` (single isomer, unassigned; isomer 2) [Example 275, 1-[2-(4-methoxyphenyl)-7-methyl-3-(pyridin-4-yl)-6,7-dihydropyrazolo[1,5-a]pyrazin-5(4H)-yl]prop-2-en-1-one (isomer 2)], for which the half-maximal inhibitory concentration (IC50) in assay [1] (setting [4]) came out at 0.476 nM; in assay [2] (Table 2a, D770_N771insNPG), 1.22 nM; in assay [3] (Table 3a, cell survival, Cell Titer-Glo, with 10 ng/ml EGF, without IL-3, 48 h), 16.8 nM.

For `C=C(F)C(=O)N1CCn2nc(-c3ccc(F)cc3)c(-c3ccncc3)c2C1` [Example 17, 2-fluoro-1-[2-(4-fluorophenyl)-3-(pyridin-4-yl)-6,7-dihydropyrazolo[1,5-a]pyrazin-5(4H)-yl]prop-2-en-1-one], the concentration for half-maximal inhibition (IC50) stood at 55.7 nM in assay [1] (setting [4]); 55.7 nM in assay [1] (setting [6]); 85.8 nM in assay [2] (Table 2a, D770_N771insNPG); 85.8 nM in assay [2] (setting [7]); 1150 nM in assay [3] (setting [5]); 1150 nM in assay [3] (setting [8]).

`C=C(CN(C)C)C(=O)N1CCn2nc(-c3ccc(F)cc3)c(-c3ccncc3)c2C1` [Example 62, 2-[(dimethylamino)methyl]-1-[2-(4-fluorophenyl)-3-(pyridin-4-yl)-6,7-dihydropyrazolo[1,5-a]pyrazin-5(4H)-yl]prop-2-en-1-one]: the concentration for half-maximal inhibition (IC50) in assay [1] (setting [4]) was found to be 29.5 nM; in assay [2] (Table 2a, D770_N771insNPG), 87.6 nM; in assay [3] (setting [5]), 390 nM.

As for `C=CC(=O)N1CCn2nc(-c3ccc(F)cc3)c(-c3ccnc(OC)c3)c2C1` [Example 11, 1-[2-(4-fluorophenyl)-3-(2-methoxypyridin-4-yl)-6,7-dihydropyrazolo[1,5-a]pyrazin-5(4H)-yl]prop-2-en-1-one], the half-inhibitory concentration (IC50) in assay [1] (setting [4]) came out at 29.6 nM; in assay [1] (setting [6]) it was 29.6 nM; in assay [2] (Table 2a, D770_N771insNPG), 43.8 nM; in assay [2] (setting [7]), 43.8 nM; in assay [3] (setting [5]) it was 1560 nM; in assay [3] (setting [8]), 1560 nM.

The record behind these values is patent US20260365653A1, “IRREVERSIBLE MUTEGFR INHIBITORS” (Bayer Aktiengesellschaft, priority 2022, published 2026).
